Measured values as given in ChEMBL document CHEMBL5500375, “Design, synthesis, and evaluation of N1,N3-dialkyldioxonaphthoimidazoliums as antibacterial agents against methicillin-resistant Staphylococcus aureus” (Eur J Med Chem, 2024).
The source made the active and inactive calls. No cut-off for these calls is given here.

Columns and labels:
[1] = Cytotoxicity against human HEK293 cells assessed as cell survival measured after 72 hrs incubation by Cell Titer-Glo luminescent assay; format: toxicity, cell-based
Staphylococcus aureus [2] = test: Induction of ROS generation in methicillin-resistant Staphylococcus aureus SA3 using hydroxyphenyl fluorescein at 0.09 ug/ml under anaerobic condition; format: functional, organism-based; settings: dose 0.09 µg/ml, TDE = time-dependent effect
Staphylococcus aureus [3] = test: Anti-biofilim activity against methicillin-resistant Staphylococcus aureus SA3 assessed decrease in biofilm growth at 1 to 10 times of MIC concentration measured after 12 to 24 hrs incubation; format: functional, organism-based; settings: time 12-24 hrs
Staphylococcus aureus [4] = test: Antibacterial agents against c5-resistant mutant of methicillin-resistant Staphylococcus aureus SA3 m3 assessed as absence of growth measured after 18 hrs by micro-dilution method; format: functional
Escherichia coli [5] = test: Antibacterial agents against gram negative Escherichia coli MG1655 assessed as reduction in colony forming unit at 0.78 ug/ml measured upto 10 hrs by LB agar medium method; format: functional, organism-based; settings: dose 0.78 µg/ml
Staphylococcus aureus [6] = test: Antibacterial activity against methicillin-resistant Staphylococcus aureus SA3 assessed as resistance by measuring antibacterial activity after 11 to 20 passages at 0.39 ug/ml by emergence of bacterial resistance assay; format: functional, organism-based; settings: dose 0.39 µg/ml
Staphylococcus aureus [7] = test: Antibacterial agents against c5-resistant mutant of methicillin-resistant Staphylococcus aureus SA3 m3 assessed as absence of growth at 0.19 ug/ml measured after overnight incubation under anaerobic condition in presence of N-acetylcysteine by micro-dilution method; format: functional, organism-based; settings: dose 0.19 µg/ml
Staphylococcus aureus [8] = test: Antibacterial agents against methicillin-sensitive Staphylococcus aureus Newman assessed as absence of growth measured after 18 hrs by micro-dilution method; format: functional
Staphylococcus aureus [9] = test: Antibacterial agents against methicillin-resistant Staphylococcus aureus USA300 assessed as absence of growth measured after 18 hrs by micro-dilution method; format: functional
Staphylococcus aureus [10] = test: Antibacterial activity against methicillin-resistant Staphylococcus aureus SA3 assessed as resistance by measuring antibacterial activity after 10 passages at 0.39 ug/ml by emergence of bacterial resistance assay; format: functional, organism-based; settings: dose 0.39 µg/ml
Pseudomonas aeruginosa [11] = test: Antibacterial agents against gram negative Pseudomonas aeruginosa PA14 assessed as reduction in colony forming unit at 0.78 ug/ml measured upto 10 hrs in presence of 0.05 ug/ml Polymyxin B by LB agar medium method; format: functional, organism-based; settings: dose 0.78 µg/ml
Escherichia coli [12] = test: Antibacterial agents against gram negative Escherichia coli MG1655 assessed as reduction in colony forming unit at 0.78 ug/ml measured upto 10 hrs in presence of 0.2 ug/ml Polymyxin B by LB agar medium method; format: functional; settings: dose 0.78 µg/ml
Staphylococcus aureus [13] = test: In vivo antibacterial activity against methicillin-resistant Staphylococcus aureus SA3 infected in dorsal thorax of Drosophila melanogaster strain Oregon R assessed as survival time of Drosophila at 0.2 mg/ml measured upto 72 hrs; format: functional
Staphylococcus aureus [14] = test: Antibacterial agents against methicillin-resistant Staphylococcus aureus USA300 assessed as absence of growth at 0.19 ug/ml measured after overnight incubation under anaerobic condition in presence of N-acetylcysteine by micro-dilution method; format: functional, organism-based; settings: dose 0.19 µg/ml
Pseudomonas aeruginosa [15] = test: Antibacterial agents against gram negative Pseudomonas aeruginosa PA14 assessed as reduction in colony forming unit at 0.78 ug/ml measured upto 10 hrs in presence of 0.1 ug/ml Polymyxin B by LB agar medium method; format: functional, organism-based; settings: dose 0.78 µg/ml
Staphylococcus aureus [16] = test: Antibacterial agents against c5-resistant mutant of methicillin-resistant Staphylococcus aureus SA3 m5 assessed as absence of growth at 0.19 ug/ml measured after overnight incubation under anaerobic condition in presence of N-acetylcysteine by micro-dilution method; format: functional, organism-based; settings: dose 0.19 µg/ml
Staphylococcus aureus [17] = test: Bactericidal activity against methicillin-resistant Staphylococcus aureus SA3 assessed as as reduction in colony forming unit at 0.78 ug/ml measured within 10 hrs by time-kill assay; format: functional; settings: dose 0.78 µg/ml
Staphylococcus aureus [18] = test: Induction of ROS generation in methicillin-resistant Staphylococcus aureus USA300 using hydroxyphenyl fluorescein at 0.19 ug/ml under anaerobic condition; format: functional, organism-based; settings: dose 0.19 µg/ml
Staphylococcus aureus [19] = test: Antibacterial agents against c5-resistant mutant of methicillin-resistant Staphylococcus aureus SA3 m2 assessed as absence of growth measured after 18 hrs by micro-dilution method; format: functional
Escherichia coli [20] = test: Antibacterial agents against gram negative Escherichia coli MG1655 assessed as reduction in colony forming unit at 0.78 ug/ml measured upto 10 hrs in presence of 0.05 to 0.2 ug/ml Polymyxin B by LB agar medium method; format: functional, organism-based; settings: dose 0.78 µg/ml
Staphylococcus aureus [21] = test: Bactericidal activity against methicillin-resistant Staphylococcus aureus SA3 assessed as as reduction in colony forming unit at 0.78 ug/ml measured upto 10 hrs by time-kill assay; format: functional, organism-based; settings: dose 0.78 µg/ml
Staphylococcus aureus [22] = test: Antibacterial activity against methicillin-resistant Staphylococcus aureus SA3 assessed as absence of growth measured after 16 passages by emergence of bacterial resistance assay; format: functional

## CCCCCCCCn1c2c([n+](Cc3ccccc3)c1C)C(=O)c1ccccc1C2=O.[Br-]
[1]
  IC50 at 72 h: 293 nM
Staphylococcus aureus [2]
  Activity: Tde
Staphylococcus aureus [3]
  Activity: Active
Staphylococcus aureus [4]
  MIC: 6.25 µg/mL
Escherichia coli [5]
  Activity: inactive
Staphylococcus aureus [6]
  Activity: inactive
Staphylococcus aureus [7]
  Activity: inactive
Staphylococcus aureus [8]
  MIC: 0.19 µg/mL
Staphylococcus aureus [9]
  MIC: 0.39 µg/mL
Staphylococcus aureus [10]
  Activity: Active
Pseudomonas aeruginosa [11]
  Activity: inactive
Escherichia coli [12]
  Activity: 4 log10CFU/ml
Staphylococcus aureus [13]
  Time: 62 h
Staphylococcus aureus [14]
  Activity: inactive
Pseudomonas aeruginosa [15]
  Activity: Active
Staphylococcus aureus [16]
  Activity: inactive
Staphylococcus aureus [17]
  Activity: 3 log10CFU/ml
Staphylococcus aureus [18]
  Activity: Active
Staphylococcus aureus [19]
  MIC: 6.25 µg/mL
Escherichia coli [20]
  Activity: inactive
Staphylococcus aureus [21]
  Activity: Active
Staphylococcus aureus [22]
  MIC: 1.56 µg/mL
